According to PubChem BioAssay (NCI):
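Growth conditions: 96-well plates. Treatment: test compound, 48 hours, 5 concentrations. Analysis: linear interpolation between bracketing concentrations; unreached endpoints set to highest concentration. GI50 is the concentration that inhibits growth by half. TGI is the concentration that stops growth completely.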

Experiments:
Experiment in all cases: growth of human tumour cells (NCI), 48 h
SK-MEL-5 melanoma = tested on: SK-MEL-5 melanoma
SK-MEL-2 melanoma = tested on: SK-MEL-2 melanoma
SW-620 colon = tested on: SW-620 colon
M14 melanoma = tested on: M14 melanoma
SF-295 CNS = tested on: SF-295 CNS
SNB-75 CNS = tested on: SNB-75 CNS
OVCAR-4 ovarian = tested on: OVCAR-4 ovarian
SK-OV-3 ovarian = tested on: SK-OV-3 ovarian
SNB-19 CNS = tested on: SNB-19 CNS
OVCAR-3 ovarian = tested on: OVCAR-3 ovarian

Row | Structure (SMILES) | TGI (SK-MEL-5 melanoma) | TGI (SK-MEL-2 melanoma) | TGI (SW-620 colon) | TGI (M14 melanoma) | TGI (SF-295 CNS) | TGI (SNB-75 CNS) | TGI (OVCAR-4 ovarian) | TGI (SK-OV-3 ovarian) | TGI (SNB-19 CNS) | TGI (OVCAR-3 ovarian) | GI50 (SK-MEL-5 melanoma) | GI50 (SK-MEL-2 melanoma) | GI50 (SW-620 colon) | GI50 (M14 melanoma) | GI50 (SF-295 CNS) | GI50 (SNB-75 CNS) | GI50 (OVCAR-4 ovarian) | GI50 (SK-OV-3 ovarian) | GI50 (SNB-19 CNS) | GI50 (OVCAR-3 ovarian)
1 | CO[C@H]1CC[C@]2(C)C3=CC[C@@]4(C)C(CC[C@@H]4C(C)CC[C@@H](C)C(C)C)C(=CCC2C1)O3 (stereo not given in full) | > 25 µM | > 25 µM | > 25 µM | > 25 µM | > 25 µM | > 25 µM | > 25 µM | > 25 µM | > 25 µM | > 25 µM |  |  |  |  |  |  |  |  |  | 
2 | O=C(N/N=C\c1cccs1)c1ccncc1 | > 100 µM | > 100 µM | > 100 µM | > 100 µM | > 100 µM | > 100 µM | > 100 µM | > 100 µM | > 100 µM | > 100 µM |  |  |  |  |  |  |  |  |  | 
3 | CC(C)NCC(O)c1ccc(O)c2ncccc12 (stereo not given) | > 100 µM | > 100 µM | > 100 µM | > 100 µM | > 100 µM | > 100 µM | > 100 µM | > 100 µM | > 100 µM | 55 µM |  |  |  |  |  |  |  |  |  | 
4 | COC1=CC(=O)C2C(C1=O)[C@@H]1c3ccccc3OC(C)(C)[C@H]21 (stereo not given in full) | 74 µM | 71.2 µM | 48 µM | 33.8 µM | > 100 µM | > 100 µM | 32.4 µM | > 100 µM | 97.7 µM | 28.3 µM |  |  |  |  |  |  |  |  |  | 
5 | N#CCCN(CCC#N)c1ccc(/C=C2\SC(=S)NC2=O)cc1 | > 100 µM | > 100 µM | > 100 µM | > 100 µM | > 100 µM | > 100 µM | > 100 µM | > 100 µM | > 100 µM | > 100 µM |  |  |  |  |  |  |  |  |  | 
6 | O=C(/C=C/c1ccc2c(c1)OCO2)NCCc1ccco1 | > 100 µM | > 100 µM | > 100 µM | > 100 µM | > 100 µM | > 100 µM | > 100 µM | > 100 µM | > 100 µM | > 100 µM |  |  |  |  |  |  |  |  |  | 
7 | Nc1ncnc2c1sc(=S)n2-c1ccccc1 | > 100 µM | > 100 µM | > 100 µM | > 100 µM | > 100 µM | > 100 µM | > 100 µM | > 100 µM | > 100 µM | > 100 µM |  |  |  |  |  |  |  |  |  | 
8 | COC1=CC(=O)c2c(cc(COP(N)(=O)N(CCCl)CCCl)n2C)C1=O (stereo not given) | 2.82 µM | 4.12 µM | 4.21 µM | 2.74 µM | 2.82 µM | 4.45 µM | 16.3 µM | 5.9 µM | 14.2 µM | 2.37 µM |  |  |  |  |  |  |  |  |  | 
9 | Cc1ccc(S(=O)(=O)NC(=O)NCCc2ccc(O)c(O)c2)cc1 | > 100 µM | > 100 µM | > 100 µM | > 100 µM | > 100 µM | > 100 µM | > 100 µM | > 100 µM | > 100 µM | > 100 µM |  |  |  |  |  |  |  |  |  | 
10 | C=CCNc1nc(O)c(/C=C2\C=Nc3ncccc32)s1 | > 100 µM | 5.09 µM | 9.25 µM | 13.1 µM | > 100 µM | 2.96 µM | 24.9 µM | 8.66 µM | 7.29 µM | 7.29 µM | 2.86 µM | 2.23 µM | 2.13 µM | 3.45 µM | 2.5 µM | 1.51 µM | 3.03 µM | 2.21 µM | 2.32 µM | 2.21 µM
11 | COc1cc(OCc2nc3cc(C(F)(F)F)ccc3nc2-c2ccccc2)cc(OC)c1OC | > 100 µM | > 100 µM | > 100 µM | > 100 µM | > 100 µM | > 100 µM | > 100 µM | > 100 µM | > 100 µM | > 100 µM |  |  |  |  |  |  |  |  |  | 
12 | Cc1ccc(S(=O)(=O)/N=C2/N(C)CCCS2(=O)=O)cc1 | > 100 µM | > 100 µM | > 100 µM | > 100 µM | > 100 µM | > 100 µM | > 100 µM | > 100 µM | > 100 µM | > 100 µM |  |  |  |  |  |  |  |  |  | 
13 | COC(=O)CCCC1(CCCC(=O)OC)CCCCCCCCC(CCCC(=O)OC)(CCCC(=O)OC)C(=O)C1=O | > 100 µM | 70.5 µM | > 100 µM | > 100 µM | > 100 µM | 88.7 µM | 54.7 µM | > 100 µM | > 100 µM | 79.7 µM |  |  |  |  |  |  |  |  |  | 
14 | C[C@@H](NC(=O)[C@@H]1C[C@]1(C)CO)c1cccc2ccccc12 | > 100 µM | > 100 µM | > 100 µM | > 100 µM | > 100 µM | > 100 µM | > 100 µM | > 100 µM | > 100 µM | > 100 µM |  |  |  |  |  |  |  |  |  | 
15 | N=c1n(CC(=O)NC23CC4CC(CC(C4)C2)C3)c2ccccc2n1CC(=O)NC12CC3CC(CC(C3)C1)C2 | 3.24 µM | 30.9 µM | 3 µM | 3.38 µM | 3.52 µM | 4.12 µM | 3.38 µM | 29.1 µM | 3.02 µM | 3.32 µM |  |  |  |  |  |  |  |  |  | 
